Measured values taken from US20220313698A1, “MODULATORS OF CYSTIC FIBROSIS TRANSMEMBRANE CONDUCTANCE REGULATOR” (Vertex Pharmaceuticals Incorporated, priority 2019, published 2022).

Molecular target: CFTR-mediated chloride transport (Homo sapiens, UniProt P13569)
Test: Corrector Assay A - membrane potential dye assay (enteroid cells)
Details: for Corrector Assay A % activity: % of chloride transport of triple combination control (1 μM (14S)-dispiro macrocycle + 3 μM tezacaftor + 300 nM ivacaftor); for EC50: read-out: Corrector Assay A EC50, human intestinal enteroid cells, 18-24 h incubation, acute 10 μM forskolin + 300 nM ivacaftor

Compound: CC(C)(C)c1ccc2c(n1)N1C[C@@H](CCC(c3cccnc3)Nc3cccc(n3)S(=O)(=O)NC2=O)CC1(C)C (single isomer, unassigned) [Compound 283]
- Corrector Assay A % activity: +++ (+++ is >60%)
- EC50: < 1 µM

Compound: COC(=O)C1CC[C@@H]2CN(c3nc(C(C)(C)C)ccc3C(=O)NS(=O)(=O)c3cccc(n3)N1)C(C)(C)C2 (single isomer, unassigned) [Compound 224]
- Corrector Assay A % activity: +++ (+++ is >60%)
- EC50: < 1 µM

Compound: CC(C)(C)c1ccc2c(n1)N1C[C@@H](CCC(c3ccc(C#N)cn3)Nc3cccc(n3)S(=O)(=O)NC2=O)CC1(C)C (stereo partly shown) [Compound 204]
- Corrector Assay A % activity: +++ (+++ is >60%)
- EC50: < 1 µM

Compound: CC(C)(C)c1ccc2c(n1)N1CC(CC1(C)C)OCCNc1cccc(n1)S(=O)(=O)NC2=O (single isomer, unassigned) [Compound 258, 8-tert-butyl-12,12-dimethyl-15-oxa-2λ^6-thia-3,9,11,18,23-pentaazatetracyclo[17.3.1.111,14.05,10]tetracosa-1(22),5(10),6,8,19(23),20-hexaene-2,2,4-trione]
- Corrector Assay A % activity: + (+ is <30%)

Compound: Cn1ccc(-c2ccc(C3CC[C@@H]4CN(c5nc(C(C)(C)C)ccc5C(=O)NS(=O)(=O)c5cccc(n5)N3)C(C)(C)C4)nc2)n1 (stereo partly shown) [Compound 60]
- Corrector Assay A % activity: +++ (+++ is >60%)
- EC50: < 1 µM

Compound: CC(C)(C)c1ccc2c(n1)N1C[C@@H](CCC(C(=O)O)Nc3cccc(n3)S(=O)(=O)NC2=O)CC1(C)C (single isomer, unassigned) [Compound 230]
- Corrector Assay A % activity: +++ (+++ is >60%)
- EC50: > 3 µM

Compound: CC(C)(C)c1ccc2c(n1)N1C[C@@H](CCC(C3CCN(C(=O)OCc4ccccc4)CC3)Nc3cccc(n3)S(=O)(=O)NC2=O)CC1(C)C (single isomer, unassigned) [Compound 254]
- Corrector Assay A % activity: + (+ is <30%)
- EC50: < 1 µM

Compound: CC(C)(C)c1ccc2c(n1)N1CC(CCCNc3cc(O)cc(n3)S(=O)(=O)NC2=O)CC1(C)C (single isomer, unassigned) [Compound 251, 8-tert-butyl-21-hydroxy-12,12-dimethyl-2λ^6-thia-3,9,11,18,23-pentaazatetracyclo[17.3.1.111,14.05,10]tetracosa-1(23),5,7,9,19,21-hexaene-2,2,4-trione]
- Corrector Assay A % activity: + (+ is <30%)

Compound: CC(C)(C)c1ccc2c(n1)N1C[C@@H](CCC(C)(c3ccccn3)Nc3cccc(n3)S(=O)(=O)NC2=O)CC1(C)C (single isomer, unassigned) [Compound 45]
- Corrector Assay A % activity: ++ (++ is 30-60%)
- EC50: < 1 µM

Compound: CC(C)(C)c1ccc2c(n1)N1CC(CCCOc3cccc(c3)S(=O)(=O)NC2=O)CC1(C)C (single isomer, unassigned) [Compound 257, 8-tert-Butyl-12,12-dimethyl-18-oxa-2λ^6-thia-3,9,11-triazatetracyclo[17.3.1.111,14.05,10]tetracosa-1(22),5,7,9,19(23),20-hexaene-2,2,4-trione]
- Corrector Assay A % activity: + (+ is <30%)

Compound: CC(C)(C)c1ccc2c(n1)N1C[C@@H](CC[C@H](c3cc(C(F)(F)F)ccn3)Nc3cccc(n3)S(=O)(=O)NC2=O)CC1(C)C (single isomer, unassigned) [Compound 93]
- Corrector Assay A % activity: +++ (+++ is >60%)
- EC50: < 1 µM

Compound: CN1CCC(C2CC[C@@H]3CN(c4nc(C(C)(C)C)ccc4C(=O)NS(=O)(=O)c4cccc(n4)N2)C(C)(C)C3)CC1 (single isomer, unassigned) [Compound 240]
- Corrector Assay A % activity: +++ (+++ is >60%)
- EC50: 1 to 3 µM

Compound: CC(C)(C)c1ccc2c(n1)N1C[C@@H](CCC(C3CCN(CCC(F)(F)F)CC3)Nc3cccc(n3)S(=O)(=O)NC2=O)CC1(C)C (stereo partly drawn) [Compound 238, (14S)-8-tert-butyl-12,12-dimethyl-17-[1-(3,3,3-trifluoropropyl)piperidin-4-yl]-2λ^6-thia-3,9,11,18,23-pentaazatetracyclo[17.3.1.111,14.05,10]tetracosa-1(23),5(10),6,8,19,21-hexaene-2,2,4-trione]
- Corrector Assay A % activity: ++ (++ is 30-60%)
- EC50: < 1 µM

Compound: CC(C)c1cnn(-c2ccc3c(n2)N2C[C@@H](CC[C@H](c4ccccn4)Nc4cccc(n4)S(=O)(=O)NC3=O)CC2(C)C)c1 [Compound 323]
- Corrector Assay A % activity: ++ (++ is 30-60%)
- EC50: < 1 µM

Compound: COC(=O)NCc1ccc(C2CC[C@@H]3CN(c4nc(C(C)(C)C)ccc4C(=O)NS(=O)(=O)c4cccc(n4)N2)C(C)(C)C3)nc1 (stereo partly drawn) [Compound 89, Methyl N-({6-[(14S)-8-tert-butyl-12,12-dimethyl-2,2,4-trioxo-2λ^6-thia-3,9,11,18,23-pentaazatetracyclo[17.3.1.111,14.05,10]tetracosa-1(23),5(10),6,8,19,21-hexaen-17-yl]pyridin-3-yl}methyl)carbamate]
- Corrector Assay A % activity: ++ (++ is 30-60%)
- EC50: < 1 µM

Compound: CC(C)(C)c1ccc2c(n1)N1C[C@@H](CCC(c3ccc(N4CCC4)cn3)Nc3cccc(n3)S(=O)(=O)NC2=O)CC1(C)C (stereo partly shown) [Compound 175]
- Corrector Assay A % activity: +++ (+++ is >60%)
- EC50: < 1 µM

Compound: CN(C)Cc1ccc(C2CC[C@@H]3CN(c4nc(C(C)(C)C)ccc4C(=O)NS(=O)(=O)c4cccc(n4)N2)C(C)(C)C3)nc1 (stereo partly shown) [Compound 103]
- Corrector Assay A % activity: ++ (++ is 30-60%)
- EC50: < 1 µM

Compound: CC(C)c1ccn(-c2ccc3c(n2)N2C[C@@H](CC[C@H](c4ccccn4)Nc4cccc(n4)S(=O)(=O)NC3=O)CC2(C)C)n1 [Compound 336]
- Corrector Assay A % activity: +++ (+++ is >60%)
- EC50: < 1 µM

Compound: COC(=O)NCc1ccnc(C2CC[C@@H]3CN(c4nc(C(C)(C)C)ccc4C(=O)NS(=O)(=O)c4cccc(n4)N2)C(C)(C)C3)c1 (single isomer, unassigned) [Compound 108]
- Corrector Assay A % activity: ++ (++ is 30-60%)
- EC50: < 1 µM

Compound: CC(C)(C)c1ccc2c(n1)N1C[C@@H](CC[C@H](c3ccc(C(F)(F)F)cn3)Nc3cccc(n3)S(=O)(=O)NC2=O)CC1(C)C (single isomer, unassigned) [Compound 80]
- Corrector Assay A % activity: ++ (++ is 30-60%)
- EC50: < 1 µM

Compound: CC(C)CC#Cc1ccc2c(n1)N1C[C@@H](CC[C@@H](c3ccccn3)Nc3cccc(n3)S(=O)(=O)NC2=O)CC1(C)C [Compound 158]
- Corrector Assay A % activity: ++ (++ is 30-60%)
- EC50: < 1 µM

Compound: CC(C)(C)c1ccc2c(n1)N1C[C@@H](CCC(c3ccc(N)cn3)Nc3cccc(n3)S(=O)(=O)NC2=O)CC1(C)C (stereo partly shown) [Compound 63]
- Corrector Assay A % activity: +++ (+++ is >60%)
- EC50: < 1 µM

Compound: CC(C)(C)c1ccc2c(n1)N1C[C@@H](CCC(c3ccc(C4=CCOCC4)cn3)Nc3cccc(n3)S(=O)(=O)NC2=O)CC1(C)C (stereo partly shown) [Compound 167]
- Corrector Assay A % activity: ++ (++ is 30-60%)
- EC50: < 1 µM

Compound: C[C@@H](O)C[C@@H]1CC[C@@H]2CN(c3nc(C(C)(C)C)ccc3C(=O)NS(=O)(=O)c3cccc(n3)N1)C(C)(C)C2 (single isomer, unassigned) [Compound 28]
- Corrector Assay A % activity: +++ (+++ is >60%)
- EC50: < 1 µM

Compound: CC(C)(C)c1ccc2c(n1)N1C[C@@H](CCC(c3ccc(CCN)cn3)Nc3cccc(n3)S(=O)(=O)NC2=O)CC1(C)C (stereo partly shown) [Compound 114]
- Corrector Assay A % activity: ++ (++ is 30-60%)
- EC50: < 1 µM

Compound: CC(C)(C)c1ccc([C@@H]2CC[C@@H]3CN(c4nc(C(C)(C)C)ccc4C(=O)NS(=O)(=O)c4cccc(n4)N2)C(C)(C)C3)cc1 (single isomer, unassigned) [Compound 38]
- Corrector Assay A % activity: +++ (+++ is >60%)
- EC50: < 1 µM
